Test results as given in patent US20210177952A1, “METHOD AND COMPOSITION FOR STIMULATING IMMUNE RESPONSE” (BeyondSpring Pharmaceuticals, Inc., priority 2018, published 2021).

Tested on: CD14^+ dendritic cells
Experiment: FACS evaluation of dendritic cell maturation markers CD40, CD80, MHCII and CD86
Assay type: cell-based, Human
Method: ISOLATION OF CD14^+ MONOCYTES FROM PBMCs: On Day 1 of the study, PBMC cells were obtained from a human donor according to (1a)-(1d) above. Monocytes were then isolated from these PBMCs on the same day (Day 1) according to steps (2a)-(2k) as follows: (2a) The number of the PBMC cells was determined. (2b) The cell suspension was centrifuged at 300×g for 10 minutes; and the supernatant was aspirated completely. (2c) The cell pellet was re-suspended in 80 μL of FACS buffer per 10^7 total cells. (2d) Per 10^7 total cells, 20 μL of CD14 MicroBeads were added. (2e) Mix well and incubate for 15 minutes in the refrigerator (2 to 8° C.). (2f) The cells were washed by adding 1 to 2 mL of FACS buffer per 10^7 cells and centrifuged at ×1500 rpm for 10 min. (2g) The cells were re-suspended up to 10^8 cells in 500 μL of FACS buffer. (2h) The column was placed in magnetic field of a suitable MACS Separator. (2i) The column was prepared by rinsing with 3 mL of FACS buffer. (2j) The cell suspension was applied onto the column. Unlabeled cells that pass through were collected and the column was washed for three times each with 3 mL of FACS buffer. Total effluent, which was the unlabeled cell fraction, was collected. Washing steps were performed by adding FACS buffer three times. New buffer was added only when the column reservoir became empty. (2k) The column was then removed from the separator and placed on a suitable collection tube. 5 mL of FACS buffer was pipetted onto the column. The magnetically labeled cells were immediately flushed out by firmly pushing the plunger into the column. This fraction represented the CD14 positive monocytes.
DIFFERENTIATION OF MONOCYTES INTO CD14^+ DENDRITIC CELLS: From the CD14 positive monocytes obtained from (2k), dendritic cells (DCs) were differentiated according to steps (2l)-(2p) as follows: (21) 5×10^6 cells were re-suspended per 5 mL of ImmunoCult™ DC Differentiation Medium and mixed well. Then 5 mL of the cell suspension was added to a T-25 cm^2 flask and the cells were incubated for 3 days at 37° C. and 5% CO2. (2m) Meanwhile, in parallel, the monocytes were treated with 3, 1, 0.3, 0.1, 0.01 and 0 μM plinabulin, respectively, in the wells of a 6-well plate and incubated for 3 days. (2n) On Day 4, the medium was removed from the T-25 cm^2 flask by pipetting and added to a 14-mL centrifuge tube. 5 mL of fresh ImmunoCult™ DC Differentiation Medium was quickly added to the culture flask. (2o) The 14 mL tube containing medium and cells (from step (2n)) was centrifuged at 300×g for 10 min. The supernatant was removed and discarded. Cells were resuspended in a small volume (i.e. 50 μL or up to 10% of the original volume) of fresh ImmunoCult™ DC Differentiation Medium and returned to the culture flask in order to save non-adherent or loosely adherent cells. The cells were then incubated at 37° C. for 2 days. (2p) Also on Day 4, 90% differentiation medium for the DCs were removed from the 6-well plate, and 90% fresh differentiation medium were added. The cells were treated with 3, 1, 0.3, 0.1, 0.01 and 0 μM plinabulin as stated above in (2m) (Study Arm #1). After another 2 days incubation, the dendritic cell maturation was evaluated by FACS for CD40, CD80, MHCII and CD86. The rest cells continued without treatment to steps (4a)-(4d) below for MLR assay. […]

[1] = treated during differentiation or maturation

For `CC(C)(C)c1[nH]cnc1/C=c1\[nH]c(=O)/c(=C/c2ccccc2)[nH]c1=O` [Plinabulin, (3Z,6Z)-3-Benzylidene-6-{[5-(2-methyl-2-propanyl)-1H-imidazol-4-yl]methylene}-2,5-piperazinedione], which “CD86 expression on DCs” value (cells treated during DC maturation (Study Arm #A2)) is on record?
Its value is “increased CD86 expression on DCs”.

And the “CD86 expression on DCs” value (cells treated during differentiation from CD14 cells (Study Arm #A1))?
Its value is “increased CD86 expression on DCs”.

And the “CD40 expression on DCs” value [1]?
The value was “no discernible increase”.

What about the “CD80 expression on DCs” value [1] of the same molecule?
Its value is “no discernible increase”.

What about the “MHCII expression on DCs” value [1] of the same molecule?
The value was “no discernible increase”.
